This passage reports T/C results from PubChem BioAssay AID260 (DTP/NCI, 2004).

This experiment relates to CD2F1 mice, intracerebral L1210 leukemia, survival T/C. Put plainly: NCI In Vivo Anticancer Drug Screen. Data for tumor model L1210 Leukemia (intracerebral) in CD2F1 (CDF1) mice. The conditions noted are these: endpoint: mean survival time, higher = longer survival. How it is done:
The antitumor activity of compounds was measured in mice bearing transplantable tumors. Survival or tumor size were measured and the results are expressed as the measurement made in the treated group (T) divided by the measurement made in the vehicle treated control group (C). The tumor model used in this assay is L1210 Leukemia (intracerebral) in CD2F1 (CDF1) mice

SMILES strings stand for the structures. Inconclusive results and toxic doses are left out.

On to `CC(CN1CC(=O)NC(=O)C1)N1CC(=O)NC(=O)C1` (centres undefined), for which the T/C by setting is: (dose: 8.0 mg/kg/injection, schedule: Q01DX009 (ip), vehicle: Klucel (hydroxypropylcellulose) (HPC)) 123 % of control; (dose: 32.0 mg/kg/injection, schedule: Q01DX009 (ip), vehicle: Klucel (hydroxypropylcellulose) (HPC)) 152 % of control; (dose: 64.0 mg/kg/injection, schedule: Q01DX009 (ip), vehicle: Klucel (hydroxypropylcellulose) (HPC)) 163 % of control; (dose: 200.0 mg/kg/injection, schedule: Q04DX003 (ip), vehicle: steriod suspending solution) 162 % of control.
